These are literature values, as cited in US20220313582A1, “METHOD FOR DYEING KERATINOUS MATERIAL, COMPRISING THE USE OF AN ORGANOSILICON COMPOUND, A CHROMOPHORIC COMPOUND AND A FILM-FORMING POLYMER II” (Henkel AG & Co. KGaA, priority 2019, published 2022).

For this data set the following is noted: for solubility in water: 25° C.

For `Nc1cc(S(=O)(=O)[O-])cc2cc(S(=O)(=O)[O-])c(N=Nc3ccccc3)c(O)c12.[Na+].[Na+]` [Acid Red 33, disodium salt of 5-amino-4-hydroxy-3-(phenylazo)-naphthalene-2,7-disulphonate], the solubility in water is reported as 2.5 g/L. With `O=C([O-])C1=NN(c2ccc(S(=O)(=O)[O-])cc2)C(=O)C1N=Nc1ccc(S(=O)(=O)[O-])cc1.[Na+].[Na+].[Na+]` (stereo not shown) [Acid Yellow 23, trisodium salt of 4,5-dihydro-5-oxo-1-(4-sulfophenyl)-4-((4-sulfophenyl)azo)-1H-pyrazole-3-carboxylic acid], the “solubility in water (in words)” value (at 25° C.) is given as “highly soluble”.

For the compound `O=S(=O)([O-])c1ccc(N=Nc2c(O)ccc3ccccc23)cc1.[Na+]` [Acid Orange 7, sodium salt of 4-[(2-hydroxy-1-naphthyl)azo]benzene sulphonate], the solubility in water entry is listed as “more than 7 g/L”.

Turning to `O=C([O-])c1c(Cl)c(Cl)c(Cl)c(Cl)c1-c1c2c(Br)cc(=O)c(Br)c-2oc2c(Br)c(O)cc(Br)c12.O=C([O-])c1c(Cl)c(Cl)c(Cl)c(Cl)c1-c1c2c(Br)cc(=O)c(Br)c-2oc2c(Br)c(O)cc(Br)c12.[Na+].[Na+]` [Acid Red 92, disodium salt of 3,4,5,6-tetrachloro-2-(1,4,5,8-tetrabromo-6-hydroxy-3-oxoxanthen-9-yl)benzoic acid], the solubility in water result was “greater than 10 g/L”.
